Test results: patent US5013743A, “Selective antibacterial agent against campytobacter” (Takeda Chemical Industries, Ltd., priority 1989, dated 1991)
≈ marks a conversion by molar mass, not a printed value.

Tests used:
Assay type in all cases: cell-based
[1] = test system: E. coli 0-111; assay: MIC, standard agar-plate dilution method, aerobic common bacteria; settings: Escherichia coli, 0111
Description: (§1) Antibacterial activities of some compounds of the present invention against aerobic common bacteria were examined.

[2] = test system: E. cloacae TN 583; assay: as above; settings: Enterobacter cloacae, TN583
Description: as §1

[3] = test system: E. cloacae IFO 12937; assay: as above; settings: Enterobacter cloacae, IFO12937
Description: as §1

[4] = test system: S. marcecens IFO 12648; assay: as above
Description: as §1

[5] = test system: S. mitis America; assay: as above; settings: Streptococcus mitis
Description: as §1

[6] = test system: M. morganii IFO 3168; assay: as above; settings: Morganella morganii, IFO3168
Description: as §1

[7] = test system: S. pyogenes S-8; assay: as above; settings: Streptococcus pyogenes, S8
Description: as §1

[8] = test system: P. vulgaris IFO 3988; assay: as above; settings: Proteus vulgaris, IFO3988
Description: as §1

[9] = test system: E. coli T 7; assay: as above; settings: Escherichia coli, T7
Description: as §1

[10] = test system: S. faecium IFO 3128; assay: as above; settings: Enterococcus faecium, IFO3128
Description: as §1

[11] = test system: S. aureus 308 A-1; assay: as above; settings: Staphylococcus aureus, 308A1
Description: as §1

[12] = test system: P. aeruginosa P 9; assay: as above; settings: Pseudomonas aeruginosa, P9
Description: as §1

[13] = test system: P. aeruginosa GN 3407; assay: as above; settings: Pseudomonas aeruginosa, GN3407
Description: as §1

[14] = test system: S. aureus C 260; assay: as above; settings: Staphylococcus aureus, C260
Description: as §1

[15] = test system: K. pneumoniae DT; assay: as above; settings: Klebsiella pneumoniae
Description: as §1

[16] = test system: S. aureus FDA 209P; assay: as above; settings: Staphylococcus aureus, FDA209P
Description: as §1

[17] = test system: S. aureus N-241; assay: as above; settings: Staphylococcus aureus, N241
Description: as §1

[18] = test system: S. aureus 1840; assay: as above; settings: Staphylococcus aureus
Description: as §1

[19] = test system: A. calcoaceticus IFO 13006; assay: as above; settings: Acinetobacter calcoaceticus, IFO13006
Description: as §1

[20] = test system: P. aeruginosa IFO 3455; assay: as above; settings: Pseudomonas aeruginosa, IFO3455
Description: as §1

[21] = test system: P. aeruginosa U 31; assay: as above; settings: Pseudomonas aeruginosa, U31
Description: as §1

[22] = test system: S. pyogenes E-14; assay: as above; settings: Streptococcus pyogenes, E14
Description: as §1

[23] = test system: C. diphtheriae Tront; assay: as above; settings: Corynebacterium diphtheriae
Description: as §1

[24] = test system: C. freundii TN 474; assay: as above; settings: Citrobacter freundii, TN474
Description: as §1

[25] = test system: S. aureus J-108; assay: as above; settings: Staphylococcus aureus, J108
Description: as §1

[26] = test system: E. coli NIHJ JC-2; assay: as above; settings: Escherichia coli, NIHJJC2
Description: as §1

[27] = test system: S. aureus P 114; assay: as above; settings: Staphylococcus aureus, P114
Description: as §1

[28] = test system: K. oxytoca TN 1711; assay: as above; settings: Klebsiella oxytoca, TN1711
Description: as §1

[29] = test system: S. pneumoniae Type 1; assay: as above; settings: Streptococcus pneumoniae, TYPE1
Description: as §1

[30] = test system: S. marcecens B 315; assay: as above
Description: as §1

[31] = test system: C. freundii IFO 12681; assay: as above; settings: Citrobacter freundii, IFO12681
Description: as §1

[32] = test system: P. aeruginosa B 184; assay: as above; settings: Pseudomonas aeruginosa, B184
Description: as §1

[33] = test system: C. pylori NCTC 11637; assay: MIC, agar-plate dilution method, test strain B; settings: Helicobacter pylori, NCTC11637, 72 h, Brucella agar, 37° C., 3 days
Protocol: (§2) The minimum inhibitory concentration (MIC) of each compound was determined by the agar-plate dilution method based on the standard method advocated by Japan Society of Chemotherapy [cf: Chemotherapy, Jan. '81, p. 76]. The volume of agar medium per plate was 20 ml. Each of the test compounds was dissolved in dimethylsulfoxide at a concentration of 80 mg/ml or 40 mg/ml, and diluted 10 times with sterile distilled water. Furthermore, the aqueous solution of 8 mg/ml or 4 mg/ml was diluted serially 2-fold with sterile distilled water. To 2 ml of the diluted solution was added 18 ml of Brucella agar (BBL Microbiology Systems, Becton Dickinson and Co., Cockeysville, Md. 21030) containing 7% defibrinated horse blood (manufactured by Nippon Bio-supp. Center) and mixed well. Test strains frozen at -80° C. in Brucella broth (BBL) containing 10% horse serum were thawed and inoculated on a Brucella agar slant medium containing 7% defibrinated horse blood. The medium was incubated anaerobically at 37° C. for 3 days in a jar containing a piece of sponge sufficiently impregnated with water and Campy Pak™ (BBL). The organisms grown on the slant medium were collected and suspended in a Brucella broth to correspond to the turbidity of about 10^8 CFU/ml of common bacteria. One platinum loop of inoculum was streaked on the medium plates for determination. The plates were incubated under the same conditions as described above.

[34] = test system: C. pylori CLO 1; assay: MIC, agar-plate dilution method, test strain F; settings: Helicobacter pylori, CLO1, 72 h, Brucella agar, 37° C., 3 days
Protocol: as §2

[35] = test system: C. pylori KS 13; assay: MIC, agar-plate dilution method, test strain E; settings: Helicobacter pylori, KS13, 72 h, Brucella agar, 37° C., 3 days
Protocol: as §2

[36] = test system: C. pylori CPY 00111; assay: MIC, agar-plate dilution method, test strain D; settings: Helicobacter pylori, CPY00111, 72 h, Brucella agar, 37° C., 3 days
Protocol: as §2

Structure (SMILES)	MIC [1]	MIC [2]	MIC [3]	MIC [4]	MIC [5]	MIC [6]	MIC [7]	MIC [8]	MIC [9]	MIC [10]	MIC [11]	MIC [12]	MIC [13]	MIC [14]	MIC [15]	MIC [16]	MIC [17]	MIC [18]	MIC [19]	MIC [20]	other results
Cc1c(OCC(F)(F)F)ccnc1C[S+]([O-])c1nc2ccccc2[nH]1 (stereo not drawn) [Compound 1]	> 400 µg/mL	> 400 µg/mL	> 400 µg/mL	> 400 µg/mL	> 400 µg/mL	> 400 µg/mL	> 400 µg/mL	> 400 µg/mL	> 400 µg/mL	> 400 µg/mL	> 400 µg/mL	> 400 µg/mL	> 400 µg/mL	> 400 µg/mL	> 400 µg/mL	> 400 µg/mL	> 400 µg/mL	> 400 µg/mL	> 400 µg/mL	> 400 µg/mL	MIC [21]: > 400 µg/mL; MIC [22]: > 400 µg/mL; MIC [23]: > 400 µg/mL; MIC [24]: > 400 µg/mL; MIC [25]: > 400 µg/mL; MIC [26]: > 400 µg/mL; MIC [27]: > 400 µg/mL; MIC [28]: > 400 µg/mL; MIC [29]: > 400 µg/mL; MIC [30]: > 400 µg/mL; MIC [31]: > 400 µg/mL; MIC [32]: > 400 µg/mL; MIC [33]: 6.25 µg/mL (≈ 16.9 µM); MIC [34]: 6.25 µg/mL (≈ 16.9 µM); MIC [35]: 6.25 µg/mL (≈ 16.9 µM); MIC [36]: 6.25 µg/mL (≈ 16.9 µM)
COc1ccc2[nH]c([S+]([O-])Cc3ncc(C)c(OC)c3C)nc2c1 (stereo not drawn) [Compound 2]	> 400 µg/mL	> 400 µg/mL	> 400 µg/mL	> 400 µg/mL	> 400 µg/mL	> 400 µg/mL	> 400 µg/mL	> 400 µg/mL	40 µg/mL (≈ 116 µM)	> 400 µg/mL	> 400 µg/mL	> 400 µg/mL	> 400 µg/mL	> 400 µg/mL	> 400 µg/mL	> 400 µg/mL	> 400 µg/mL	> 400 µg/mL	> 400 µg/mL	> 400 µg/mL	MIC [21]: > 400 µg/mL; MIC [22]: > 400 µg/mL; MIC [23]: > 400 µg/mL; MIC [24]: > 400 µg/mL; MIC [25]: > 400 µg/mL; MIC [26]: > 400 µg/mL; MIC [27]: > 400 µg/mL; MIC [28]: > 400 µg/mL; MIC [29]: > 400 µg/mL; MIC [30]: > 400 µg/mL; MIC [31]: > 400 µg/mL; MIC [32]: > 400 µg/mL; MIC [33]: 25 µg/mL (≈ 72.4 µM); MIC [34]: 25 µg/mL (≈ 72.4 µM); MIC [35]: 25 µg/mL (≈ 72.4 µM); MIC [36]: 12.5 µg/mL (≈ 36.2 µM)
Cc1c(OCC(F)(F)F)ccnc1CSc1nc2ccccc2[nH]1 [Compound 6]	40 µg/mL (≈ 113 µM)	> 400 µg/mL	> 400 µg/mL	> 400 µg/mL	> 400 µg/mL	> 400 µg/mL	> 400 µg/mL	> 400 µg/mL	> 400 µg/mL	> 400 µg/mL	> 400 µg/mL	> 400 µg/mL	> 400 µg/mL	> 400 µg/mL	> 400 µg/mL	> 400 µg/mL	> 400 µg/mL	> 400 µg/mL	> 400 µg/mL	> 400 µg/mL	MIC [21]: > 400 µg/mL; MIC [22]: > 400 µg/mL; MIC [23]: > 400 µg/mL; MIC [24]: > 400 µg/mL; MIC [25]: > 400 µg/mL; MIC [26]: > 400 µg/mL; MIC [27]: > 400 µg/mL; MIC [28]: > 400 µg/mL; MIC [29]: > 400 µg/mL; MIC [30]: > 400 µg/mL; MIC [31]: > 400 µg/mL; MIC [32]: > 400 µg/mL; MIC [33]: 12.5 µg/mL (≈ 35.4 µM); MIC [34]: 25 µg/mL (≈ 70.7 µM); MIC [35]: 12.5 µg/mL (≈ 35.4 µM); MIC [36]: 3.13 µg/mL (≈ 8.86 µM)
